Data on four molecules can be found in patent US20110306668A1 (NATIONAL TSING HUA UNIVERSITY, priority 2010, published 2011).

Format in all cases: cell-based
The test system of data set [1] is Tramp C1 (transgenic adenocarcinoma of the mouse prostate). Kind of data set: Cytotoxicity by MTT assay, TRAMP C-1 cells. As to conditions: for IC50: Mus musculus, TRAMP-C1, 48 h, TRAMP C-1 cells, MTT, incubation of 2 days, read-out: IC50 values, inhibition of growth of cells. The protocol:
(§1) The cell lines were used in the present invention, including C26 (solid murine colon carcinoma), A549 (Human type II epithelial cell line, from American Type Culture Collection, Manassas, Va.), MCF7 (solid human estrogen receptor positive breast carcinoma) and Tramp C1 (transgenic adenocarcinoma of the mouse prostate).
(§2) 10 μL combinatorial compound was added into the well of microtiterplate planted with 100 μL of abovementioned cell lines in a concentration of 30000 cells/mL. After an incubation of 2 days, the supernatants were washed, followed by adding MTT reagents. After 4 hrs, absorbance at 580 nm was recorded according to the usual protocol.

Data set [2] deals with A549 (Human type II epithelial cell line). The data set can be described thus: Cytotoxicity by MTT assay, A549 cells. As to conditions: 48 h, incubation of 2 days, read-out: IC50 values, inhibition of growth of cells. The procedure:
as §1, §2

In data set [3] the test system is MCF7 (solid human estrogen receptor positive breast carcinoma). Kind of data set: Cytotoxicity by MTT assay, MCF7 cells. To be noted: 48 h, incubation of 2 days, read-out: IC50 values, inhibition of growth of cells. The procedure:
as §1, §2

The subject of data set [4] is C26 (solid murine colon carcinoma). Kind of data set: Cytotoxicity by MTT assay, C26 cells. As to conditions: Mus musculus, 48 h, incubation of 2 days, read-out: IC50 values, inhibition of growth of cells. The protocol: as §1, §2

The structures appear in SMILES notation.

As for `Cc1ccc(C)c(OCCCC(C)(C)C(=O)NCCCCNC(=O)CCC(=O)c2ccc(-c3ccccc3)cc2)c1` [compound 12, N-(4-(4-(biphenyl-4-yl)-4-oxobutanamido)butyl)-5-(2,5-dimethylphenoxy)-2,2-dimethylpentanamide], the IC50 turned out to be 21 µM in data set [1], 9 µM in data set [2], 2 µM in data set [3] and 15 µM in data set [4].
On to `CCCCC(CC)C(=O)NCCCCNC(=O)CCC(=O)c1ccc(-c2ccccc2)cc1` (stereo not shown) [compound 13, N-(4-(4-(biphenyl-4-yl)-4-oxobutanamido)butyl)-2-ethylhexanamide], for which the half-inhibitory concentration (IC50) in data set [1] is 18 µM; in data set [2] it was 17 µM; in data set [3], < 1 µM; in data set [4], 15 µM.
On to `C=C(CC)C(=O)c1ccc(OCC(=O)NCCCCNC(=O)CCC(=O)c2ccc(-c3ccccc3)cc2)c(Cl)c1Cl` [compound 14, 4-(biphenyl-4-yl)-N-(4-(2-(2,3-dichloro-4-(2-methylenebutanoyl)phenoxy)acetamido)butyl)-4-oxobutanamide], for which the half-inhibitory concentration (IC50) in data set [1] is > 100 µM; in data set [2], 19 µM; in data set [3], 5 µM; in data set [4], 35 µM. Further, the “cytotoxicity against Tramp C-1 cell” value in data set [1] (Tramp C-1 cell, result in words) was “void of cytotoxicity”.
For `O=C(O)CCC(=O)c1ccc(-c2ccccc2)cc1` [Fenbufen, 4-(biphenyl-4-yl)-4-oxobutanoic acid, reference compound], the half-inhibitory concentration (IC50) in data set [1], in data set [2] and in data set [4] was > 100 µM in each case.
